Laboratory results published in US10125121B2, “FYN kinase inhibitors” (ROTTAPHARM BIOTECH S.R.L., priority 2015, dated 2018).

Legend:
[1] = biological target: FYN (Homo sapiens, UniProt P06241); test: Kinase selectivity panel by Cerep
[2] = test system: remaining kinases examined (standard panel of about 100 human kinase assay); test: Kinase selectivity panel by Cerep
[3] = biological target: FLT-4 (Homo sapiens, UniProt P35916); test: Kinase selectivity panel by Cerep; settings: read-out: inhibition of FLT-4
[4] = biological target: BLK (Homo sapiens, UniProt P51451); test: Kinase selectivity panel by Cerep
[5] = biological target: active FYN (human recombinant, 62.7 kDa) (Homo sapiens, UniProt P06241); test: In vitro kinase assay (Z′-LYTE FRET); assay type: biochemical; settings: read-out: IC50(nM) FYN INHIBITION
[6] = biological target: T1, FLT-3 (Homo sapiens, UniProt P36888); test: Kinase selectivity panel by Cerep; settings: read-out: inhibition of FLT-3
T1 sequence (P36888 27-993): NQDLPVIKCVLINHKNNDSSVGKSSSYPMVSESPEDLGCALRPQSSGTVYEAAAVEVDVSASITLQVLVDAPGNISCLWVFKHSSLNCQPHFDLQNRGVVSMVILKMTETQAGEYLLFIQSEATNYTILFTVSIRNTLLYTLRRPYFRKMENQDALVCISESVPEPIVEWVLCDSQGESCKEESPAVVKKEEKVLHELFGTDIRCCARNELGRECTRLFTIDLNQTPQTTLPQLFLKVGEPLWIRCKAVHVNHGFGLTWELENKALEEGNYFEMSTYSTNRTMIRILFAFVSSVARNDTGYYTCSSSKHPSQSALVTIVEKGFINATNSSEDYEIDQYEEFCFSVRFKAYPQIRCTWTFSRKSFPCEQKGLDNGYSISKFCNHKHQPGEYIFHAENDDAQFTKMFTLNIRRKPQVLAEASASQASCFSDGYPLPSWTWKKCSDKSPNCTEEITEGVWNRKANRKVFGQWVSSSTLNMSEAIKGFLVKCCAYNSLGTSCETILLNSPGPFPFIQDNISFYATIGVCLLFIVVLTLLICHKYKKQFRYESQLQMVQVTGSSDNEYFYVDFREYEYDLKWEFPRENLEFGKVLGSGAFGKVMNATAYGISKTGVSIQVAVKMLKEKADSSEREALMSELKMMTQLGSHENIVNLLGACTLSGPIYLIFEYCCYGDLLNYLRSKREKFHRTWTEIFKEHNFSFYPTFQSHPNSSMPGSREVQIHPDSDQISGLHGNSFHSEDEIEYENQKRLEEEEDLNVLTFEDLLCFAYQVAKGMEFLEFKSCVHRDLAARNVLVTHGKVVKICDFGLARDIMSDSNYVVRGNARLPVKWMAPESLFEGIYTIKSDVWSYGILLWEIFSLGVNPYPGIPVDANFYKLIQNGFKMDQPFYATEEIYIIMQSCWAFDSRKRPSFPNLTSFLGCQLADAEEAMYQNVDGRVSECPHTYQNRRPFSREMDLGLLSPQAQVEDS

[7] = test system: CFA induced hyperalgesia; test: CFA-induced inflammatory pain in rats (Randall-Selitto paw withdrawal threshold); assay type: in vivo; settings: 3; rat, 24 h after administration
Experimental: Male Wistar rats were injected into the right hind footpad with 300 μg of Mycobacterium tuberculosis in 100 μL of liquid paraffin (Complete Freund's Adjuvant; CFA). Seventy-two hours later, compounds 2 and 26 were administered subcutaneously and 24 h after the administration, the response to noxious mechanical stimulation was assessed by measuring paw withdrawal threshold (PWT) with an analgesimeter of the Randall-Selitto type. Animals were gently restrained, and steadily increasing pressure was applied to the dorsal surface of both the ipsi-lateral (CFA-treated) and the contra-lateral paw via a dome-shaped plastic tip.
100% protection means that the animal treated with the compound and CFA can tolerate the same stimulus (weight) as the control animal which has not received CFA treatment.

[8] = biological target: LYN (Homo sapiens, UniProt P07948); test: Kinase selectivity panel by Cerep
[9] = biological target: HCK (Homo sapiens, UniProt P08631); test: Kinase selectivity panel by Cerep
[10] = biological target: RET (Homo sapiens, UniProt P07949); test: Kinase selectivity panel by Cerep; settings: read-out: inhibition of RET
[11] = biological target: SRC (Homo sapiens, UniProt P12931); test: Kinase selectivity panel by Cerep
SRC, sequence (P12931 whole entry): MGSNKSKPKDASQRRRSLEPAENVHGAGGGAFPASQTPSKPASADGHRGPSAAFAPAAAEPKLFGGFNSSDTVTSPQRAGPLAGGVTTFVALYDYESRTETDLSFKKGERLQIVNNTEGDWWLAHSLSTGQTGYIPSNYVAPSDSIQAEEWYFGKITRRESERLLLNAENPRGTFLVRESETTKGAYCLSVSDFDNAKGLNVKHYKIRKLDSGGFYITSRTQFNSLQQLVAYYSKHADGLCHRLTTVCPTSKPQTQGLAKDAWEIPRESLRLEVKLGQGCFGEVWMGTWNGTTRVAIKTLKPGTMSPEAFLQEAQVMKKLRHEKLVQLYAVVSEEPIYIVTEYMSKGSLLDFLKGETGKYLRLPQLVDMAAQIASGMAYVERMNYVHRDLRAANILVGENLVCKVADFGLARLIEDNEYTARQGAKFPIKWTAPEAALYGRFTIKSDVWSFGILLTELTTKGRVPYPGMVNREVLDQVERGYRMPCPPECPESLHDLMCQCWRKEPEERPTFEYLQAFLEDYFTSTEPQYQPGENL

BLK, sequence (P51451 whole entry): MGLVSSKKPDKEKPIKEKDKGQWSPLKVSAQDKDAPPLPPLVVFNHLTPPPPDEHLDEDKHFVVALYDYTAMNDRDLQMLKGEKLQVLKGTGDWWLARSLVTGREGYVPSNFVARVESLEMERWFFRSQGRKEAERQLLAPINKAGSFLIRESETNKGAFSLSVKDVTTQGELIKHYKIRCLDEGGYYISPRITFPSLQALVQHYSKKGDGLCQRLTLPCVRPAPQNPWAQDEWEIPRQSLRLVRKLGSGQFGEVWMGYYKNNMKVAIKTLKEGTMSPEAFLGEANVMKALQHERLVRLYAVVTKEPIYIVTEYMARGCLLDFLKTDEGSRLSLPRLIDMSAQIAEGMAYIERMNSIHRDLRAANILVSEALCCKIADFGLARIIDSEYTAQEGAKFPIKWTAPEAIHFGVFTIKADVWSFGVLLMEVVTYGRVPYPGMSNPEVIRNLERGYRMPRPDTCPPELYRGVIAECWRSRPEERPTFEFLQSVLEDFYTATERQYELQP
LYN, sequence (P07948 whole entry): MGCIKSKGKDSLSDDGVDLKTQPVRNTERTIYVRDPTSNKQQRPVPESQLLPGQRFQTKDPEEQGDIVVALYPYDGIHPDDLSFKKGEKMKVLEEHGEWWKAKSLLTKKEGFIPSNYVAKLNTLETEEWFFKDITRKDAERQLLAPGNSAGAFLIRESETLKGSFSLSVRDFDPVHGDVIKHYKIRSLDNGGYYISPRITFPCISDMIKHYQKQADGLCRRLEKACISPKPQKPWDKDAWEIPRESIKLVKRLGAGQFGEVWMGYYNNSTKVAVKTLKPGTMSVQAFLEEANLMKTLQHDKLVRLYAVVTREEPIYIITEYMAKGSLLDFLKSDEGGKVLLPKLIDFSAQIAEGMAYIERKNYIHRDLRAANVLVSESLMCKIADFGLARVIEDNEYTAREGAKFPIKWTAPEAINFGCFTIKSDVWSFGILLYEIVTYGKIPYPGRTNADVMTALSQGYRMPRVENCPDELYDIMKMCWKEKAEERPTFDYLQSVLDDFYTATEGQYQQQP
active FYN (human recombinant, 62.7 kDa), sequence (P06241 whole entry): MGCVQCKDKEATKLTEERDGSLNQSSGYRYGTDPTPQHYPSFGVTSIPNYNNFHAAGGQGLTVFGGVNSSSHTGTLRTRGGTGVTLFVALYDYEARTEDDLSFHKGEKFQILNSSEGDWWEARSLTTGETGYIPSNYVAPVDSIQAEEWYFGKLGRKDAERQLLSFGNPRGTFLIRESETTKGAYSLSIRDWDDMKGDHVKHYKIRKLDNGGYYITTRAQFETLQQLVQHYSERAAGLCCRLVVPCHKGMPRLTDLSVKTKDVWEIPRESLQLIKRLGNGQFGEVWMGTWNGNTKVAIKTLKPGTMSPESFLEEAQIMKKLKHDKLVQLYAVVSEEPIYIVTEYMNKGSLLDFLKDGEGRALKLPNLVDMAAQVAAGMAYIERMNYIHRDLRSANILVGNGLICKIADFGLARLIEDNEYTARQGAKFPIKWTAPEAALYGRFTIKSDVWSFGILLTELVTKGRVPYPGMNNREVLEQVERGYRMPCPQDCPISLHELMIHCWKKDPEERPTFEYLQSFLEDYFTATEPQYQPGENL
FYN, sequence (P06241 whole entry): as above
RET, sequence (P07949 29-1114): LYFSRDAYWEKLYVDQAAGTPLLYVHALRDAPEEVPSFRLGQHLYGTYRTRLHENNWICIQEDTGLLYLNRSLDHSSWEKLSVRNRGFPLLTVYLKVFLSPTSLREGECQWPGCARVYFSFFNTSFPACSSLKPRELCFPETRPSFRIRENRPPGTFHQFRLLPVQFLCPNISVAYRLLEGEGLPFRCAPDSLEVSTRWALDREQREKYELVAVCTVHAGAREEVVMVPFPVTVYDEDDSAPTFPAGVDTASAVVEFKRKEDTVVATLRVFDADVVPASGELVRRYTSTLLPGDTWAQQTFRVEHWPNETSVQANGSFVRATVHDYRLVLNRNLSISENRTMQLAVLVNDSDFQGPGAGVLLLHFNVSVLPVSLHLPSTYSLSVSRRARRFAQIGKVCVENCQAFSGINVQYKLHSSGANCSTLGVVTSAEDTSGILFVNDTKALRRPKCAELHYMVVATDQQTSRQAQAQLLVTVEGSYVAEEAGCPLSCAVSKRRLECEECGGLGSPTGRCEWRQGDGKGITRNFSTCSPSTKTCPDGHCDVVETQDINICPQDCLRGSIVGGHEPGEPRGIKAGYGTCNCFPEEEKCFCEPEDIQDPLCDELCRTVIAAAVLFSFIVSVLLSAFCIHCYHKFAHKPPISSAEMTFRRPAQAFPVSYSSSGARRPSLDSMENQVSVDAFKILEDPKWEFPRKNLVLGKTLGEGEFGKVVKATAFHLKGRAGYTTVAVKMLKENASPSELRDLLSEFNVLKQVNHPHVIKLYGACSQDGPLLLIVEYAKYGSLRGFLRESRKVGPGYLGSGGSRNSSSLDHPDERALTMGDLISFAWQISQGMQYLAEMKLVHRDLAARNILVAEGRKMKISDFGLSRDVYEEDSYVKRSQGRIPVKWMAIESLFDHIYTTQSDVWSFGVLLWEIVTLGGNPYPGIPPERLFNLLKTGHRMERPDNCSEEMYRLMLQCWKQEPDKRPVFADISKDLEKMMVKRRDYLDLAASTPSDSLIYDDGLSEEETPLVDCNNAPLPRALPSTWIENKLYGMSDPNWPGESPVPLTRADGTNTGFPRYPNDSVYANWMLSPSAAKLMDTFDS
FLT-4, sequence (P35916 25-1363): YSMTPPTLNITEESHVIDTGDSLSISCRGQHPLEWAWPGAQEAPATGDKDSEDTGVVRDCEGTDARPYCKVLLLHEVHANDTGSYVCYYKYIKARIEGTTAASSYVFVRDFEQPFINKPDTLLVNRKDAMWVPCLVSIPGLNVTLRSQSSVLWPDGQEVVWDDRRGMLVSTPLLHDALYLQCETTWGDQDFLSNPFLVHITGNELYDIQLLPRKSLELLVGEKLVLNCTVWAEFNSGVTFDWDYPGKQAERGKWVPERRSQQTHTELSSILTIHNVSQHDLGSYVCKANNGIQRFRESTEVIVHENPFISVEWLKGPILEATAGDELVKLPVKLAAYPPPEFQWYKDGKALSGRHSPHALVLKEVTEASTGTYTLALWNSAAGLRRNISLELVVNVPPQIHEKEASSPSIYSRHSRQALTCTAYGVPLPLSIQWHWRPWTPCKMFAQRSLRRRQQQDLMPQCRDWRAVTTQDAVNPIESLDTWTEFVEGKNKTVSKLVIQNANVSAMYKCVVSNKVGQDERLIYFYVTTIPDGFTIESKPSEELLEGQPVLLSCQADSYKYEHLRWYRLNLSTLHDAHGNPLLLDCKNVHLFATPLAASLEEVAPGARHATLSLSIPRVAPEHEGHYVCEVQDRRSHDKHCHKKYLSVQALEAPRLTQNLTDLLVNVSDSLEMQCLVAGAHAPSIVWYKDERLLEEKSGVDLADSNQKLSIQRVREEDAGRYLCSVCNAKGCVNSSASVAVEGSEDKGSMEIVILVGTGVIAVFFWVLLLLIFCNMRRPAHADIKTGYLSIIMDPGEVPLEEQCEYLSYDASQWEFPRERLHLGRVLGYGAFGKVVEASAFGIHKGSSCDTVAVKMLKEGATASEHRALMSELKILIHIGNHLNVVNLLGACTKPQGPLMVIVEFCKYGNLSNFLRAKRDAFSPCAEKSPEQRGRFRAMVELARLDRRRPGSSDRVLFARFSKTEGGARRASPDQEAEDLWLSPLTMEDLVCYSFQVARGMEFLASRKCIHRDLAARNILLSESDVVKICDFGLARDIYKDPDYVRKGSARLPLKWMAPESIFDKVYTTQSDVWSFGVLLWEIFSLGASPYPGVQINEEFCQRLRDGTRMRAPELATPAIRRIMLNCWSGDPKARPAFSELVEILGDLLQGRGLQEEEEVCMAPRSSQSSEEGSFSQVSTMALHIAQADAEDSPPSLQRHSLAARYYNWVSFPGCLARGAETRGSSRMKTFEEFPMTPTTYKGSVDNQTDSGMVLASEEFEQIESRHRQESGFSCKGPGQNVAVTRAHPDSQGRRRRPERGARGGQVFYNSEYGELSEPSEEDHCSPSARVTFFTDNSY

Q: How did the IC50 [1] turn out when O=C(Nc1ccc(CN2CCN(c3nccc(Nc4cc(C5CC5)[nH]n4)n3)CC2)cc1)c1ccccc1C(F)(F)F [Compound 2, N-(4-((4-(4-((5-cyclopropyl-1H-pyrazol-3-yl)amino)pyrimidin-2-yl)piperazin-1-yl)methyl)phenyl)-2-(trifluoromethyl)-benzamide] was run?
A: 9 nM

Q: And the “effect on more than 70% of the remaining kinases examined” value [2]?
A: practically ineffective

Q: What about the inhibition at 0.1 µM [3] of the same compound?
A: > 50%

Q: And the IC50 [4]?
A: 480 nM

Q: What about the IC50 [5] of the same compound?
A: 9 nM

Q: What about the inhibition at 0.1 µM [6] of the same compound?
A: > 50%

Q: And the “% protective effect vs. CFA induced hyperalgesia” value [7]?
A: 100%

Q: What about the IC50 [8] of the same compound?
A: 1400 nM

Q: What about the IC50 [9] of the same compound?
A: 3200 nM

Q: And the inhibition at 0.1 µM [10]?
A: > 50%

Q: What about the IC50 [11] of the same compound?
A: 730 nM
